Measurements published in BigSolDB 2.1.

CC(C)c1nc(N(C)S(C)(=O)=O)nc(-c2ccc(F)cc2)c1/C=C/[C@@H](O)C[C@@H](O)CC(=O)[O-].CC(C)c1nc(N(C)S(C)(=O)=O)nc(-c2ccc(F)cc2)c1/C=C/[C@@H](O)C[C@@H](O)CC(=O)[O-].[Ca+2]
solubility (mole fraction)
Details	in ethanol	in ethylene glycol	in isopropanol	in n-butanol	in propylene glycol	in sec-butanol	in water
298.15 K	0.000337	0.000255	0.000304	0.000429	0.0156	7.17e-05	5.4e-06
303.15 K	0.000392	0.000311	0.000366	0.000511	0.0164	8e-05	7.02e-06
308.15 K	0.000469	0.000374	0.000432	0.000614	0.0173	8.96e-05	9e-06
313.15 K	0.00057	0.00044	0.000499	0.00071	0.0181	9.92e-05	1.13e-05
318.15 K	0.000681	0.000503	0.000566	0.00082	0.0189	0.000108	1.4e-05
